Laboratory results: patent US8946263B2, “Compositions and methods for modulating circadian synchronization” (Max-Planck-Gesellchaft zur Forderung der Wissenschaften E.V., priority 2011, dated 2015)

Legend:
WT (C57BL/6J) mice [1] = assay: Behavioral reentrainment (wheel-running activity onsets) after 6-hour phase advance of the LD cycle; type: in vivo, mouse
Description: (§1) Handling and activity measurements during experiments were performed as described previously (Jud et al. 2005). Wheel-running activity was analyzed using ClockLab software (Actimetrics). For the jet lag experiment (6-hour rapid advance or 8-hour rapid delay of the LD cycle), animals were single-housed in running wheel-equipped cages for 2 weeks or longer under LD conditions (lights on, ZT0; light intensities of 350 lux). On day 1 of the jet lag, the lights-off time (ZT12) was shifted from 6 pm to […] (phase advance paradigm) or from 6 pm to 2 am (phase delay paradigm). Using a short day protocol, we defined day 1 as the first advanced dark period (similar to Davidson et al. 2009, who used a short night approach in which the first day is defined by the deemed light period; but different from Yamazaki et al. 2000, where the following day—corresponding to day 2 in our study—was referred to as day 1). […] Animals were synchronized to the new LD regimen for another 2 weeks during which time of wheel-running activity was recorded. Individual activity onsets before and after the shift were determined by visual inspection and averaged over the whole cohort to asses reentrainment rates. […]
(§2) Peak time analyses were performed using Prism software (GraphPad). […] Maxima were calculated using the axis section of the second derivative. […]

WT (C57BL/6J) mice [2] = assay: Behavioral reentrainment (wheel-running activity onsets) after 8-hour phase delay of the LD cycle; type: in vivo, mouse
Description: as §1, §2

WT (C57BL/6J) mice [3] = assay: Observations during the 16-day metyrapone injection period before jet lag; type: in vivo, mouse; details: for effect on the onset of wheel-running activity: during injection period
Description: Handling and activity measurements during experiments were performed as described previously (Jud et al. 2005). Wheel-running activity was analyzed using ClockLab software (Actimetrics). For the jet lag experiment (6-hour rapid advance or 8-hour rapid delay of the LD cycle), animals were single-housed in running wheel-equipped cages for 2 weeks or longer under LD conditions (lights on, ZT0; light intensities of 350 lux). On day 1 of the jet lag, the lights-off time (ZT12) was shifted from 6 pm to […] (phase advance paradigm) or from 6 pm to 2 am (phase delay paradigm). Using a short day protocol, we defined day 1 as the first advanced dark period (similar to Davidson et al. 2009, who used a short night approach in which the first day is defined by the deemed light period; but different from Yamazaki et al. 2000, where the following day—corresponding to day 2 in our study—was referred to as day 1). For the delay experiment (8-hour rapid delay of the LD cycle), animals were housed in running wheel—equipped single cages for 2 weeks or longer under LD conditions (lights on, ZT0; light intensities of 50 lux). On day 1 of the jet lag, the lights-off time (ZT12) was shifted from 12 pm to 8 pm. Day 1 was defined here as the day with the first delayed dark period. Animals were synchronized to the new LD regimen for another 2 weeks during which time of wheel-running activity was recorded. Individual activity onsets before and after the shift were determined by visual inspection and averaged over the whole cohort to asses reentrainment rates. Administration of metyrapone (Sigma-Aldrich) to WT mice was done for 16 days prior to the jet lag procedure (see above). Two sets of 24 animals each received metyrapone dissolved in water (100 mg/kg body weight per day) via i.p. injection at different times during the day. Injections were stopped 1 day before the LD shift (day 0). METD animals were injected during the first half of their rest phase at ZT3; METN animals received metyrapone injections at the beginning of their activity phase at ZT12. […]

[4] = test system: corticosterone excretion rhythms; assay: Fecal corticosterone excretion rhythm after 16 days of timed metyrapone injection; type: in vivo, mouse; details: for direction of shift of the peak of maximum glucocorticoid levels: mice
Description: Fecal samples were collected at 4-hour intervals before and after the jet lag treatment using wheel cages equipped with wire grid floors. To rule out stress-induced effects, animals were transferred to the collection cages 3 days prior to the first sampling interval. Fecal samples were stored at −80° C. Corticoid metabolite extraction and quantification by RIA (MP Biomedicals) were performed as described previously (Abraham et al. 2006).
Administration of metyrapone (Sigma-Aldrich) to WT mice was done for 16 days prior to the jet lag procedure (see above). Two sets of 24 animals each received metyrapone dissolved in water (100 mg/kg body weight per day) via i.p. injection at different times during the day. Injections were stopped 1 day before the LD shift (day 0). METD animals were injected during the first half of their rest phase at ZT3; METN animals received metyrapone injections at the beginning of their activity phase at ZT12. At day 16 of the treatment (day-1 relative to LD shift), fecal samples were collected to analyze the phase shift of corticoid excretion rhythms. Saline-treated (0.9% NaCl) WT littermates injected at ZT3 or ZT12 were used as controls for all experiments.
Peak time analyses were performed using Prism software (GraphPad). A sine wave equation, y=BaseLine+Amplitude sin(frequency x+PhaseShift), was fitted to the data. For gene expression and corticosterone data, frequency was fixed to 24 hours. Maxima were calculated using the axis section of the second derivative. To determine PS50, a sigmoid dose-response curve with variable slope was fitted to the sine wave maxima (corticosterone), y=Bottom+(Top−Bottom) (1+10(log PS50−x) HillSlope), or onset time points (locomotor activity) for each group. To test whether the best-fit PS50 values differed between data sets, data were compared by extra sum-of-squares F test using a P value of less than 0.05 as a threshold. Maxima of gene expression or corticosterone at specific days were compared by Mann-Whitney rank sum test, even if normality tests and equal variance tests were positive, reflecting the small sample sizes of 3-9. A statistically significant difference was assumed with P values less than 0.05. Correlations between phase-shift activity onsets and corticosterone maxima were performed using linear regression. The quality of fit was estimated by r determination. Departure from linearity was tested with runs test. Normality and homoscedasticity tests were passed for all data sets. Diurnal variation of expression data was tested using Fourier analysis with CircWave version 3.3 software (Oster et al. 2006) and threshold values of 0.05 for α and a period of 24 hours.

hamsters = details: cited from earlier work
[5] = METD (ZT3 injection, 16 days before shift) vs SALD
[6] = METN (ZT12 injection, 16 days before shift) vs SALN

| Compound | activity resetting after 6-hour phase advance (WT (C57BL/6J) mice [1]; [5]) | activity resetting after 6-hour phase advance (WT (C57BL/6J) mice [1]; [6]) | behavioral adaptation after 8-hour phase delay (WT (C57BL/6J) mice [2]; [5]) | behavioral adaptation after 8-hour phase delay (WT (C57BL/6J) mice [2]; [6]) | effect on the onset of wheel-running activity (WT (C57BL/6J) mice [3]; METD mice) | effect on the onset of wheel-running activity (WT (C57BL/6J) mice [3]; METN mice) | side effect of injection (WT (C57BL/6J) mice [3]; daily i.p. injection, 100 mg/kg, 16 days) | amplitude of glucocorticoid excretion rhythms ([4]; METD and METN, 16 days of treatment, data not shown) | forward shift of corticosterone maximum relative to SALD control ([4]; METD: 100 mg/kg/day i.p. at ZT3 (rest phase) for 16 days, day prior to phase shift) | backward shift of peak corticosterone relative to SALN ([4]; METN: 100 mg/kg/day i.p. at ZT12 (beginning of activity phase) for 16 days) | direction of shift of the peak of maximum glucocorticoid levels ([4]; administration at 6 pm (first half of the active phase)) | direction of shift of the peak of maximum glucocorticoid levels ([4]; administration at 9 am (first half of rest phase)) | circadian responses to light (hamsters) | reentrainment after phase advances of the LD cycle (hamsters) |
| --- | --- | --- | --- | --- | --- | --- | --- | --- | --- | --- | --- | --- | --- | --- |
| CC(C)(C(=O)c1cccnc1)c1cccnc1 [metyrapone, 2-methyl-1,2-di-3-pyridyl-1-propanone] | accelerated activity resetting | reentrained slower | decelerated adaptation | more rapid behavioural adaptation | no effect | only minor effect | transient drowsiness | did not significantly change | 1 h | 1 h | backward shift | forward shift | – | – |
| CCCc1nn(C)c2c(=O)[nH]c(-c3cc(S(=O)(=O)N4CCN(C)CC4)ccc3OCC)nc12 [sildenafil] | – | – | – | – | – | – | – | – | – | – | – | – | enhances circadian responses to light | accelerates reentrainment |
